Test results taken from PMC6967409 (Frontiers in Chemistry, 2020).
Where “and” joins values, the source holds several entries; their conditions need not be identical. Equal entries are not always repeated. Where two headings read alike, the source gives them in different places.

How the values were obtained:
[1] = test system: P. falciparum stage III/IV/V and mature stage V (>95% stage V) gametocytes; assay: Stage-specificity and kill kinetics against late stage gametocytes, luciferase reporter line; type: cell-based; details: Plasmodium falciparum, 72 h treatment
Procedure: Late stage gametocytes, stage III, IV/V (10% stage III, 50% stage IV, 40% stage V population on day 10 post-induction) or mature stage V (>95% stage V on day 13 post-induction) were used to determine the differential stage specificity and kill kinetics (speed-of-action) of the compounds. Dose responses were determined using the luciferase reporter line, exposed to 10-fold serial drug dilutions for 72 h at 37°C under 90% N2, 5% CO2, and 5% O2 atmospheric conditions. […] Additionally, a drug washout step was included by replacing the drug-containing spent medium with fresh media (without drug) followed by a further 24 h incubation prior to measuring luciferase activity. […] Data are the average from a single independent biological experiment with technical triplicates, error bars indicate ±SD.

[2] = test system: P. falciparum NF54 late stage gametocytes (>90% stage IV and V); assay: Gametocytocidal luciferase reporter assay, late stage, 72 h; type: cell-based, Plasmodium falciparum
Method in brief: (§1)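 Luciferase reporter P. falciparum line; gametocyte cultures treated with 50 mM NAG to remove asexual parasites. Early gametocytes (day 5, stage I–III) exposed 48 h to two-fold dilutions; late (day 10, stage IV–V) 72 h to 10-fold dilutions; 2% gametocytemia, 2% hematocrit, 37°C, 90% N2/5% CO2/5% O2.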

P. falciparum K1 [3] = assay: Proliferative (SYBR Green I) assay, asexual parasites, 96 h; type: cell-based; details: Plasmodium falciparum, ±SEM
Method in brief: (§2)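 Synchronized ring-stage (>95%) parasites in human erythrocytes were treated with two-fold dilutions at 37 °C under 90% N2/5% CO2/5% O2, with DMSO <0.1%. SYBR Green I fluorescence was read after 96 h (1% parasitemia, 1% hematocrit). pLDH activity was read after 48 h (1.5–2% parasitemia, 2% hematocrit).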

P. falciparum NF54 [4] = assay: as above; type: cell-based; details: Plasmodium falciparum, ±SEM
Method in brief: as §2

P. falciparum W2 [5] = assay: as above; type: cell-based; details: Plasmodium falciparum, ±SEM
Method in brief: as §2

Cytotoxicity, MTT assay = type: cell-based; details: Chinese hamster, CHO cells
Procedure: (§3) Cytotoxicity (EC50) was determined against Chinese hamster ovarian (CHO) using a 3-(4,5-dimethylthiazol-2-yl)-2,5-diphenyltetrazolium bromide (MTT) assay and hepatocellular carcinoma cells (HepG2) using the Cytoselect LDH cytotoxicity assay kit (Cell Biolabs).

HepG2 cells [6] = assay: HepG2 cytotoxicity bioluminescence assay (CellTiterGlo, ATP); type: cell-based, human; details: two biological replicates listed in one cell; listed as 28 (WHN-14)
Method in brief: (§4)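 HepG2-CD81 cells seeded onto compounds in DMSO, infected with P. berghei luciferase-expressing sporozoites; liver-stage growth read as luciferase bioluminescence after BrightGlo luciferin addition. Cytotoxicity measured in parallel on uninfected HepG2 plates via CellTiterGlo ATP luminescence.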

[7] = as above; type: cell-based, human; details: human, uninfected HepG2-CD81 cells
Method in brief: as §4

[8] = test system: P. berghei ANKA GFP-Luc-SMcon sporozoites; assay: P. berghei-luciferase liver stage bioluminescence assay (causal prophylactic mode) in HepG2-CD81 cells; type: cell-based, Plasmodium berghei
Method in brief: as §4

P. falciparum W2 [9] = assay: T0 [3H]-hypoxanthine drug susceptibility assay; type: cell-based; details: Plasmodium falciparum
[10] = test system: P. falciparum ARC08-22 (4G); assay: T0 [3H]-hypoxanthine drug susceptibility assay, artemisinin-resistant clone (C580Y); type: cell-based, Plasmodium falciparum; details: preliminary, W2 as comparative sensitive strain
P. falciparum NF54 [11] = assay: Metabolic (parasite LDH) assay, asexual ring stage parasites, 48 h; type: cell-based; details: Plasmodium falciparum, pLDH, CQ-sensitive NF54
Method in brief: as §2

[12] = test system: P. falciparum NF54 early stage gametocytes (>90% stage I–III); assay: Gametocytocidal luciferase reporter assay, early stage, 48 h; type: cell-based; details: Plasmodium falciparum, NF54, 48 h, read-out: Early Stage (EG, Luc 48 h) IC50
Method in brief: as §1

P. falciparum Dd2 [13] = assay: Metabolic (parasite LDH) assay, asexual ring stage parasites, 48 h; type: cell-based; details: Plasmodium falciparum, pLDH, Dd2 CQ, pyrimethamine resistant
Method in brief: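 Two-fold serial dilutions on >95% ring-stage Dd2 parasites (1.5–2% parasitemia, 2% hematocrit) in Albumax II RPMI, final DMSO <0.1%, at 37°C under 90% N2/5% CO2/5% O2. Parasite LDH activity read after 48 h drug exposure for dose-response.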

[14] = Cytotoxicity, Cytoselect LDH cytotoxicity assay kit; type: cell-based; details: human, HepG2 cells
Procedure: as §3

[15] = test system: asexual P. falciparum NF54, Dd2, K1, W2; assay: Asexual P. falciparum, metabolic (pLDH) and proliferative (SYBR Green I) platforms; type: cell-based; details: Plasmodium falciparum; read-out: IC50 for drug sensitive NF54 parasites across both assay platforms
Procedure: Data analysis was performed using GraphPad Prism 7.
The in vitro activities of the new derivatives were determined against drug sensitive NF54 and multi-drug resistant Dd2, K1, and W2 intraerythrocytic asexual P. falciparum malaria parasite strains using both a metabolic (parasite LDH) and a proliferative (SYBR Green I fluorescence) assay readout (Table 1).

HepG2 cells [16] = details: read-out: Cytotoxicity EC50 HepG2; ref Coertzen et al. (2018); cited from earlier work
P. falciparum K1 [17] = test system: P. falciparum K1; set-up: method as in Coertzen et al. (2018); details: SYBR Green I; ref Coertzen et al. (2018); read-out: Proliferative IC50 K1; cited from earlier work
P. falciparum NF54 [18] = test system: P. falciparum NF54; set-up: method as in Coertzen et al. (2018); details: SYBR Green I; ref Coertzen et al. (2018); read-out: Proliferative IC50 NF54; cited from earlier work
P. falciparum NF54 [19] = test system: P. falciparum NF54; set-up: method as in Coertzen et al. (2018); details: pLDH, 48 h; ref Coertzen et al. (2018); read-out: Metabolic IC50 NF54; cited from earlier work
P. falciparum Dd2 [20] = test system: P. falciparum Dd2; set-up: method as in Coertzen et al. (2018); details: pLDH, 48 h; ref Coertzen et al. (2018); read-out: Metabolic IC50 Dd2; cited from earlier work

C[C@H]1[C@H](N2CCN(C(=O)c3ccc(F)cc3)CC2)O[C@@H]2O[C@@]3(C)CC[C@H]4[C@H](C)CC[C@@H]1[C@@]24OO3 [Compound 28]
IC50 [1]: < 10 nM
IC50 ([2]; Plasmodium falciparum, NF54, 72 h, read-out: Late Stage (LG, Luc 72 h) IC50, >90% stage IV and V gametocytes, ±SEM): 0.4 to 0.7 nM
IC50 ([2]; read-out: Late Stage (LG, Luc 72 h) IC50, >90% stage IV and V gametocytes, ±SEM): 0.6 ± 0.3 nM
IC50 (P. falciparum K1 [3]): 2.1 ± 1.1 nM
IC50 (P. falciparum NF54 [4]): 2.8 ± 0.2 nM
IC50 (P. falciparum W2 [5]): 2.7 ± 0.2 nM
EC50 (Cytotoxicity, MTT assay): 190000 nM
HepG2 Cytotoxicity Bioluminescence Assay: Maximum measured (%) (HepG2 cells [6]): 61.7% and 66.5%
IC50 (HepG2 cells [6]): 6440 nM
IC50 at 72 h ([7]; two biological replicates listed in one cell): 10200 nM
EC50 at 72 h ([7]; uninfected HepG2, ATP bioluminescence): 8320 nM
Emax ([8]; Plasmodium berghei, 48 h, two biological replicates listed in one cell, read-out: P.berghei-Luciferase Liver Stage Bioluminescence Assay: Maximum measured (%)): 101%
IC50 ([8]; Plasmodium berghei, HepG2, 48 h, liver stage, HepG2 host cells, luciferase after 48 h, ±SD, read-out: P. berghei sporozoites IC50): 114 ± 15.6 nM
IC50 ([8]; Plasmodium berghei, two biological replicates listed in one cell, read-out: P.berghei-Luciferase Liver Stage Bioluminescence Assay: IC50): 103 nM
inhibition at 10 µM ([8]; Plasmodium berghei, Conc. 10 μM, read-out: P. berghei sporozoites Maximum inhibition %): 104 ± 4.24%
IC50 ([8]; two biological replicates listed in one cell, listed as 28 (WHN-14), read-out: P.berghei-Luciferase Liver Stage Bioluminescence Assay: IC50): 125 nM
IC50 (P. falciparum W2 [9]; W2, read-out: W2 IC50): 0.1 ± 0.03 nM
IC90 (P. falciparum W2 [9]; W2, read-out: W2 IC90): 0.19 ± 0.02 nM
susceptibility of ARC08-22 (4G) clone (in words) [10]: no indication of reduced susceptibility
IC50 (P. falciparum NF54 [11]): 1.06 ± 0.19 nM
IC50 [12]: 19.5 ± 8.5 nM
IC50 (P. falciparum Dd2 [13]): 1.5 ± 0.6 nM
EC50 [14]: 190 nM
IC50 [15]: 1 to 2 nM

CCN(CC)CCCC(C)Nc1ccnc2cc(Cl)ccc12 (centres unmarked) [CQ, chloroquine]
EC50 (HepG2 cells [16]): 58.4 nM
IC50 (P. falciparum K1 [17]): 154 ± 14 nM
IC50 (P. falciparum NF54 [18]): 10 ± 3 nM
IC50 (P. falciparum NF54 [19]): 10 ± 1.6 nM
IC50 (P. falciparum Dd2 [20]): 251 ± 19.9 nM
